The structures appear in SMILES notation.

As to `Fc1ccc(-c2ncn(C3CCCCC3)c2-c2ccnc(NC3CCC3)n2)cc1` [compound 81, N-Cyclobutyl-4-(1-cyclohexyl-4-(4-fluorophenyl)-1H-imidazol-5-yl)pyrimidin-2-amine], the melting point (usually the temperature of the solid-liquid transition) was in the range of 185 to 189 °C. On to `C#CCNc1nccc(-c2c(-c3ccc(F)cc3)ncn2C2CCCCC2)n1` [compound 83, 4-(1-Cyclohexyl-4-(4-fluorophenyl)-1H-imidazol-5-yl)-N-(prop-2-yn-1-yl)pyrimidin-2-amine], for which the melting point lay within 147 to 155 °C. In the case of `OCCNc1nccc(-c2c(-c3ccc(F)cc3)ncn2C2CCCCC2)n1` [compound 84, 2-((4-(1-Cyclohexyl-4-(4-fluorophenyl)-1H-imidazol-5-yl)pyrimidin-2-yl)amino)ethan-1-ol] it was 180 to 184 °C.

The record behind these values is patent US20200079757A1, “COMPOUNDS FOR THE TREATMENT OF RESPIRATORY DISEASES” (THE UNIVERSITY OF MELBOURNE, priority 2017, published 2020).
